Measurements: patent US12458659B2, “Methods for treating macrophage-mediated diseases, and methods of identifying agents useful therefore” (The Regents of the University of California, priority 2019, dated 2025)

Legend:
[1] = tested on: NLRP3 inflammasome; experiment: IL-1β release by LPS-primed macrophages stimulated with NLRP3 activators (ELISA); assay type: cell-based, mouse; conditions: LPS-primed
Method: Macrophage culture and stimulation—Femurs and tibias from C57BL/6 mice, Ampkα1^−/− mice, and Il10rb^−/− mice at 6-10 weeks of age were used to generate bone-marrow-derived macrophages (BMDM) as described (Hornung et al., 2008). Macrophages were cultured in DMEM supplemented with 10% FBS, 20% L929-cell conditioned medium, and 100 U/ml penicillin-streptomycin for 7-10 days. Bone marrow was isolated from MWS Nlrp3^A350VneoRCreT, FCAS Nlrp3^L351PneoCreT and NOMID Nlrp3^D301NneoCreT conditional knock-in mice (Bonar et al., 2012; Brydges et al., 2009), and were allowed to differentiate over 7 days with addition of fresh mouse recombinant GMCSF every three days. (Z)-4-hydroxitamoxifen at 0.4 μg/ml was added to cells 24 hr prior to treatment to induce the mutant Nlrp3 allele. Immortalized mouse BMDM were grown in DMEM supplemented with 10% FBS and 100 U/ml penicillin-streptomycin. All cells were grown at 37° C. with 5% CO2. NLRP3 inflammasome activation was induced priming for 4 hr with ultrapure LPS (100 ng/ml) followed by treatment with the NLRP3 activators ATP (4 mM) and nigericin (10 μM) for 45 min, unless otherwise indicated, and monosodium urate (MSU) crystals (400 μg/ml) and 1,2-dioleoyl-3-trimethylammoniumpropane (DOTAP) liposomes (50 μg/ml) for 3 hr. In Nlrp3 mutant macrophages IL-1b production was induced by LPS treatment for 16 hr at 37° C., whereas FCAS macrophages were incubated at 32° C. without LPS addition. AIM2 inflammasome activation was induced by 4 hr LPS priming and transfection with lipofectamine 3000 and the AIM2 activator poly(dA:dT) (1 μg/ml) for 8 hr. For choline deprivation experiments, the cells were cultured in CMRL1066 medium with or without choline for 2-3 hr before priming with LPS and kept during the experiment.
Protein Immunoblotting and ELISA—Mitochondria were isolated using Mitochondria Isolation kit. Whole cell lysates were prepared in NP40 buffer containing a protease inhibitor cocktail and a phosphatase inhibitor cocktail, and supernatants were analyzed by SDS-PAGE. […]

[2] = tested on: BMDM; experiment: Mitochondrial reactive oxygen species (MitoSOX); assay type: cell-based, mouse; conditions: BMDM pretreated with RSM932A, LPS+DOTAP or LPS+nigericin
Method: Mitochondrial Function—Mitochondrial membrane potential (Ψm) was measured using TMRM (#T668, Life Technologies) according to manufacturer's instructions. Briefly, RSM932A-pretreated BMDM and shCtrl and shChoKα iBMDM were primed with LPS for 4 hr. Cells were stained with 200 nM TMRM for 30 min at 37° C., and then treated with CCCP (5 μM) for 5 min. After washing twice, fluorescence intensity was determined per manufacturer's instructions using a FilterMax F5 multimode plate reader (Molecular Devices), Mitochondrial reactive oxygen species (mtROS) was measured using MitoSOX (Invitrogen) as described (Zhong et al., 2016c). […] After washing with PBS, fluorescence intensity was determined at 510/580 nm using a FilterMax F5 plate reader. NAD^+/NADH ratio was measured using NAD^+/NADH Cell-Based Assay kit according to manufacturer's instructions (Cayman Chemical Company). […] Absorbance was measured at 450 nm using FilterMax F5 plate reader. Complex V ATP synthase activity was measured in mitochondria isolated from BMDM treated with LPS for 24 hr using Complex V Activity Assay kit (Cayman Chemical Company) according to manufacturer's instructions. Absorbance was measured at 340 nm at 30-second intervals for 30 min using a FilterMax F5 plate reader. Cellular ATP was measured after 24 hr LPS stimulation using CellTiter-Glo Luminescent Assay (Promega) as described (Ip et al., 2017). […]

C/[N+](c1ccc(Cl)cc1)=c1\ccn(Cc2ccc(-c3ccc(Cn4cc/c(=[N+](/C)c5ccc(Cl)cc5)c5ccccc54)cc3)cc2)c2ccccc12 [RSM932A]
IL-1β production ([1]; BMDM pretreated overnight with 5 μM RSM932A, ATP or MSU-stimulated, compared with ChoKα knockdown (reduced)): produced a similar effect | reduction of MSU-induced IL-1β release ([1]; MSU-stimulated BMDM pretreated overnight with 5 μM RSM932A, p<0.005): 71% | production of mitochondrial reactive oxygen species (mtROS) [2]: attenuated
